Data: patent US7964595B2, “Thiophenyl prostaglandin derivatives for treating glaucoma and ocular hypertension” (Allergan, Inc., priority 2008, dated 2011)

System: lashes and adjacent hairs of patients
Experiment: Clinical observation of eyelash/hair growth in glaucoma patients treated in one eye
Assay type: in vivo
Conditions: glaucoma patients treated in one eye only
From the text: In the course of treating patients having glaucoma, treatment may only be appropriate in one eye. […] The lash appearance on the lids of the treated eyes would have appeared quite attractive if it represented a bilateral phenomenon. As a result of its asymmetric nature, the long lashes on one side could be construed as disturbing from a cosmetic standpoint. A systemic examination was preformed as a result of the asymmetric phenomenon. It soon became apparent that this altered appearance was not an isolated finding. […] Definite differences could be identified to varying degrees in the lashes and adjacent hairs of all patients who were taking the drug on a unilateral basis for longer than 6 months.
The changes in the lashes were apparent on gross inspection in several patients once attention was focused on the issue. In those with light colored hair and lashes, the differences were only seen easily with the aid of the high magnification and lighting capabilities of the slit lamp biomicroscope. In the course of glaucoma follow-up examination, attention is generally immediately focused on the eye itself. As a result of the high power magnification needed only one eye is seen at a time and the eye is seen at a high enough power that the lashes are not in focus. […]

For `CCNC(=O)CCC/C=C\C[C@@H]1[C@@H](/C=C/[C@@H](O)CCc2ccccc2)[C@H](O)C[C@@H]1O` [bimatoprost], the “lash appearance in treated eye versus non-treated eye” value was “longer, thicker, and fuller”.
